From patent US12338203B2 (TAISHO PHARMACEUTICAL CO., LTD., priority 2019, dated 2025)

Molecular target: T1, human LPAR1 (Homo sapiens, UniProt Q92633)
T1 construct: expressed in transfected cells
Experiment: Test Example 1: antagonism against response of LPA-induced increase in intracellular Ca2+ concentration in RH7777 cells stably expressing human LPAR1
Assay type: cell-based
Conditions: RH7777 cells stably expressing human LPAR1; Fluo-4 fluorescence, FDSS6000; read-out: IC50 value (concentration producing 50% antagonism against response of LPA-induced increase in intracellular Ca2+ concentration) (converted)
Method in brief: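 RH7777 cells stably transfected with human LPAR1 were preincubated with test compound 30 min at 37 °C in HBSS/20 mM HEPES/probenecid/0.05% BSA buffer, pH 7.4, then LPA-stimulated.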

T1 sequence (Q92633 whole entry): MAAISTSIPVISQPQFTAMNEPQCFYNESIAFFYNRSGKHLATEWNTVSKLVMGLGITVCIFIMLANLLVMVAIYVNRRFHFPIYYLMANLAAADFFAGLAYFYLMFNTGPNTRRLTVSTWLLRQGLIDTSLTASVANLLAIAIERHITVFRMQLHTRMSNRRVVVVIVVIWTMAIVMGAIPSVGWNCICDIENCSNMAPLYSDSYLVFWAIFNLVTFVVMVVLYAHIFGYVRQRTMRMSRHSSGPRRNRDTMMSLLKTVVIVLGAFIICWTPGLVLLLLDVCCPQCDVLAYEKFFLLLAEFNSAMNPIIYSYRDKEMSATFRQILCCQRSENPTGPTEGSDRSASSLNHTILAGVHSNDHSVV

Row | Compound | IC50
1 | CCOc1cc([C@@H](C)N(CCCCc2ccccc2)C(=O)NC2(c3nnn[nH]3)CC(F)(F)C2)cc(OCC)c1C(C)=O [Example 10-7, N-[(1R)-1-(4-Acetyl-3,5-Diethoxyphenyl)Ethyl]-N′-[3,3-Difluoro-1-(1H-Tetrazol-5-Yl)Cyclobutyl]-N-(4-Phenylbutyl) Urea] | 2.97 nM
2 | CCOc1cc([C@@H](C)N(CCCCc2ccccc2)C(=O)NC2(c3nnn[nH]3)CC(F)(F)C2)cc(OCC)c1C(C)O (stereo partly drawn) [Example 10-9, N-{(1R)-1-[3,5-Diethoxy-4-(1-Hydroxyethyl)Phenyl]Ethyl}-N′-[3,3-Difluoro-1-(1H-Tetrazol-5-Yl)Cyclobutyl]-N-(4-Phenylbutyl) Urea] | 4.69 nM
3 | CCOc1cc([C@@H](C)N(CCCCc2ccccc2)C(=O)NC2(c3nn[nH]n3)CC(F)(F)C2)c(Cl)c(OCC)c1C(C)O (stereo partly drawn) [Example 10-10] | 7.08 nM
4 | CCOc1cc([C@@H](C)N(CCCCc2ccccc2)C(=O)NC2(c3nn[nH]n3)CC(F)(F)C2)c(Cl)c(OCC)c1C(C)O (stereo partly drawn) [Example 10-11] | 8.1 nM
5 | CCOc1cc(C(C)N(CCC(F)(F)Cc2ccccc2)C(=O)NC2(c3nn[nH]n3)CC(F)(F)C2)c(Cl)c(OCC)c1C(C)=O (stereo not drawn) [Example 10-12] | 21.5 nM
6 | CCOc1cc(C(C)N(CCOCc2ccccc2)C(=O)NC2(c3nn[nH]n3)CC(F)(F)C2)cc(OCC)c1C1CC1 (stereo not drawn) [Example 10-13] | 3.17 nM
7 | CCOc1cc(C(C)N(CCCCc2ccccc2)C(=O)NC2(c3nn[nH]n3)CC(OC)C2)cc(OCC)c1C(C)=O (stereo not drawn) [Example 10-14] | 5.08 nM
8 | CCOc1cc(C(C)N(CCOC(C)c2ccccc2)C(=O)NC2(c3nn[nH]n3)CC(OC)C2)cc(OCC)c1C1CC1 (stereo not drawn) [Example 10-15] | 2.38 nM
9 | CCOc1cc(C(C)N(CCOC(C)c2ccccc2)C(=O)NC2(c3nn[nH]n3)CC(OC)C2)cc(OCC)c1C(C)=O (stereo not drawn) [Example 10-16] | 4.86 nM
10 | CCOc1cc(C(C)N(CCOC(C)c2ccccc2)C(=O)N[C@]2(c3nn[nH]n3)C[C@@H](OC)C2)cc(OCC)c1C(C)O (stereo partly drawn) [Example 10-17] | 16.7 nM
11 | CCOc1cc(C(C)N(CCCCc2ccccc2)C(=O)NC2(c3nn[nH]n3)CCCC2)cc(OCC)c1C (stereo not drawn) [Example 10-18] | 38.4 nM
12 | Trans-1-[([(1R)-1-(4-Acetyl-2,6-Dichloro-3,5-Diethoxyphenyl)Ethyl]{2-[(1S)-1-Phenylethoxy]Ethyl}Carbamoyl)Amino]-3-Ethoxycyclobutane-1-Carboxylic Acid [Example 5-120] | 11.1 nM
